Results reported in patent US20260159533A1, “INHIBITORS OF COMPLEMENT FACTORS AND USES THEREOF” (Annexon, Inc., priority 2022, published 2026).
Counter-ions that a name gives are not always drawn.

Each molecule was assayed against T1, human C1s protein (Homo sapiens, UniProt P09871) (assay: recombinant C1s enzymatic assay (YLGR-Rh110-dPro substrate hydrolysis, fluorescence)). Details: recombinant human C1s 2.5 nM, substrate YLGR-Rh110-dPro 20 μM, 15 min pre-incubation, 60 min RT; read-out: rec. hC11s pIC50 (converted).
T1 construct: purchased R&D Systems or Complement Technologies 2060-SE or A104
T1 sequence (P09871 16-688): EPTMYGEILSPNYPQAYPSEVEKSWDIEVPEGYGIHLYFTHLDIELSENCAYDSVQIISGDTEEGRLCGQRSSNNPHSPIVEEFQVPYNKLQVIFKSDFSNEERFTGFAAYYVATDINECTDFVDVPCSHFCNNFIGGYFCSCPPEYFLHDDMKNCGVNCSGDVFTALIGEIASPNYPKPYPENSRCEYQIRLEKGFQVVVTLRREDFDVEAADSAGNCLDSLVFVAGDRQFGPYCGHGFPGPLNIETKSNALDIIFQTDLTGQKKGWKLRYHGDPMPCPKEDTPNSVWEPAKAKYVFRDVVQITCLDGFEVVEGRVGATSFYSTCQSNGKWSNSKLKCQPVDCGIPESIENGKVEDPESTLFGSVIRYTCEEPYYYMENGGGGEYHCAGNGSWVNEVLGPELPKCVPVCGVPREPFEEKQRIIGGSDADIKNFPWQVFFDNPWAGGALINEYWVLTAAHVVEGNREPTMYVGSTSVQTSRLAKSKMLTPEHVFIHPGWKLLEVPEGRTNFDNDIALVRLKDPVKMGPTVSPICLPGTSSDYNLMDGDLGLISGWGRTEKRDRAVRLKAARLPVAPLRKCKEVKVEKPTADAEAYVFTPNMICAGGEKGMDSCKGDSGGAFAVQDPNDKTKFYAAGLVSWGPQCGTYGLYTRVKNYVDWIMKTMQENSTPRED
Format: biochemical
Method: Compound testing in the purified or recombinant C1s enzymatic assay C1s is a serine protease; its enzymatic activity is measured in vitro by the hydrolysis of the synthetic substrate YLGR-Rh110-dPro (Kerr F K, O'Brien G, Quinsey N S, Whisstock J C, Boyd S, de la Banda M G, Kaiserman D, Matthews A Y, Bird P I, Pike R N. Elucidation of the substrate specificity of the Cis protease of the classical complement pathway. J. Biol. Chem. (2005) 280, 39510-39514). The enzyme cleaves the substrate with the release of Rh110 which is highly fluorescent. Cis inhibitors prevent the hydrolysis of the substrate thus resulting in a decrease of the signal.
The recombinant C1s enzymatic assay is performed using the human C1s protein (R&D Systems, 2060-SE or Complement Technologies, A104). The assay buffer composition is: 50 mM HEPES pH 7.5 (Sigma, H3375), 150 mM NaCl (Sigma, S7653), 0.2% PEG 8000 (VWR, AA43443-22), 0.01% Pluronic F127 (Sigma, P2243). On the day of the experiment 0.1 mg/mL BSA (Sigma, B4287) is added fresh to the buffer. The test item stock solutions are serially diluted 1:3 or 1:4 or 1:5 with DMSO, 11-point curves, in a 384-well compound plate. Nafamostat concentration curve is always included in the assay plate as a reference control.
The assay plate is prepared by dispensing 0.25 μL from compound plate into a 384-well black assay plate (assay plate, Greiner Fluotrac 200, 781076, VWR 736-0140). The high controls are prepared dispensing in 0.25 μL DMSO in column 23, rows AH or AP and low controls with 0.25 μL of 0.1 μM Nafamostat. Cis solution is prepared as 2× of the 2.5 nM final assay concentration. The YLGR-Rh110-dPro substrate is prepared as 2× of the final assay concentration of 20 μM. 5 μL/well of 2× enzyme solution is dispensed and pre-incubated for 15 min with the compounds. The enzymatic reaction is the started with 5 μL/well of the 2× substrate solution. The plate is incubated for 60 min RT in the dark and fluorescence is measured (ex 485/em 535 nm) using an Envision (PerkinElmer) or an equivalent instrument.

IC50	SMILES
1.45 nM	Nc1cnnc2cc(-c3cc4c(cc3-c3nccs3)OCCOB4O)ccc12 [Example 76, 7-(1-hydroxy-7-thiazol-2-yl-3,4-dihydro-2,5,1-benzodioxaborepin-8-yl)cinnolin-4-amine]
1.58 nM	CC1(C)COc2cc(-n3cccn3)c(-c3ccc4c(N)cnnc4c3)cc2B(O)O1 [Example 77, 7-(1-hydroxy-3,3-dimethyl-7-pyrazol-1-yl-4H-2,5,1-benzodioxaborepin-8-yl)cinnolin-4-amine]
1.17 nM	COc1cc(-n2cc(C(F)(F)F)cn2)c(-c2ccc3c(N)cnnc3c2)cc1B(O)O [Example 81, 5-(4-aminocinnolin-7-yl)-2-methoxy-4-[4-(trifluoromethyl)pyrazol-1-yl]phenyl]boronic acid formic acid salt]
1.23 nM	CCOc1cc(-n2cccn2)c(-c2ccc3c(N)cnnc3c2)cc1B(O)O [Example 82, [5-(4-aminocinnolin-7-yl)-2-ethoxy-4-pyrazol-1-yl-phenyl]boronic acid]
1.23 nM	COc1cc(-c2ncc(C(F)(F)F)s2)c(-c2ccc3c(N)cnnc3c2)cc1B(O)O [Example 83, [5-(4-aminocinnolin-7-yl)-2-methoxy-4-[5-(trifluoromethyl)thiazol-2-yl]phenyl]boronic acid]
0.741 nM	COc1cc(-n2cc(OC(F)F)cn2)c(-c2ccc3c(N)cnnc3c2)cc1B(O)O [Example 84, [5-(4-aminocinnolin-7-yl)-4-[4-(difluoromethoxy)pyrazol-1-yl]-2-methoxy-phenyl]boronic acid formic acid salt]
1.2 nM	COc1cc(-n2cc(OC(F)(F)F)cn2)c(-c2ccc3c(N)cnnc3c2)cc1B(O)O [Example 85, [5-(4-aminocinnolin-7-yl)-2-methoxy-4-[4-(trifluoromethoxy)pyrazol-1-yl]phenyl]boronic acid formic acid salt]
0.741 nM	COc1cc(-c2ncc(C(F)F)s2)c(-c2ccc3c(N)cnnc3c2)cc1B(O)O [Example 86, [5-(4-aminocinnolin-7-yl)-4-[5-(difluoromethyl)thiazol-2-yl]-2-methoxy-phenyl]boronic acid]
0.724 nM	COc1cc(-c2ncc(C)o2)c(-c2ccc3c(N)cnnc3c2)cc1B(O)O [Example 88, [5-(4-aminocinnolin-7-yl)-2-methoxy-4-(5-methyloxazol-2-yl)phenyl]boronic acid formic acid salt]
0.759 nM	Nc1cnnc2cc(-c3cc(B(O)O)c(OC4CC4)cc3-n3cccn3)ccc12 [Example 89, [5-(4-aminocinnolin-7-yl)-2-(cyclopropoxy)-4-pyrazol-1-yl-phenyl]boronic acid formic acid salt]
1.02 nM	COc1cc(-c2ncc(C(F)F)o2)c(-c2ccc3c(N)cnnc3c2)cc1B(O)O [Example 90, [5-(4-aminocinnolin-7-yl)-4-[5-(difluoromethyl)oxazol-2-yl]-2-methoxy-phenyl]boronic acid formic acid salt]
0.468 nM	COc1cc(-c2ncns2)c(-c2ccc3c(N)cnnc3c2)cc1B(O)O [Example 91, [5-(4-aminocinnolin-7-yl)-2-methoxy-4-(1,2,4-thiadiazol-5-yl)phenyl]boronic acid formic acid salt]
